Experimental data published in US8940909B2, “Indicator platform” (Biosynth AG, priority 2009, dated 2015).

What was measured:
Format in all cases: cell-based
Escherichia coli = experiment: IN and IO staining of bacterial colonies under anaerobic conditions; conditions: Nutrient Agar plates, anaerobically incubated with E. coli
Method: Nutrient Agar plates containing 150 mg/l of various substrates and 100 mg/l IPTG were inoculated with Escherichia coli. Plates were put in an anaerobic jar (Anaerojar, Oxoid), an AnaeroGen sachet (Oxoid) was added, the jar was closed and incubated for 24 hours at 37° C.
IN staining cannot be used under anaerobic conditions.

Aeromonas hydrophila 292 = experiment: IO staining of colonies of beta-D-galactosidase positive/negative bacteria (Table IVb); conditions: Aeromonas hydrophila strain 292, b-gal +; 24 h on Nutrient Agar, 150 mg/l indicator, 100 mg/l IPTG; for G: Growth of colonies: key: −: absent; +/−: weak; +: strong; ++: very strong
Citrobacter freundii 181 = experiment: as above; conditions: Citrobacter freundii strain 181, b-gal +; 24 h on Nutrient Agar, 150 mg/l indicator, 100 mg/l IPTG; for C: Color of colonies: key: −: absent; +/−: weak; +: strong; ++: very strong; for G: Growth of colonies: key: −: absent; +/−: weak; +: strong; ++: very strong
[1] = tested on: Enterobacter aerogenes 242; experiment: as above; conditions: Enterobacter aerogenes strain 242, b-gal +; 24 h on Nutrient Agar, 150 mg/l indicator, 100 mg/l IPTG; for C: Color of colonies: key: −: absent; +/−: weak; +: strong; ++: very strong; for G: Growth of colonies: key: −: absent; +/−: weak; +: strong; ++: very strong
Enterobacter cloacae 245 = experiment: as above; conditions: Enterobacter cloacae strain 245, b-gal +; 24 h on Nutrient Agar, 150 mg/l indicator, 100 mg/l IPTG; for C: Color of colonies: key: −: absent; +/−: weak; +: strong; ++: very strong; for G: Growth of colonies: key: −: absent; +/−: weak; +: strong; ++: very strong
[2] = tested on: Escherichia coli (O157:H7) 60; experiment: as above; conditions: Escherichia coli (O157:H7) strain 60, b-gal +; 24 h on Nutrient Agar, 150 mg/l indicator, 100 mg/l IPTG
Escherichia coli 61 = experiment: as above; conditions: Escherichia coli strain 61, b-gal +; 24 h on Nutrient Agar, 150 mg/l indicator, 100 mg/l IPTG; for C: Color of colonies: key: −: absent; +/−: weak; +: strong; ++: very strong; for G: Growth of colonies: key: −: absent; +/−: weak; +: strong; ++: very strong
Escherichia coli 270 = experiment: as above; conditions: Escherichia coli strain 270, b-gal +; 24 h on Nutrient Agar, 150 mg/l indicator, 100 mg/l IPTG; for C: Color of colonies: key: −: absent; +/−: weak; +: strong; ++: very strong; for G: Growth of colonies: key: −: absent; +/−: weak; +: strong; ++: very strong
[3] = tested on: Klebsiella pneumoniae 164; experiment: as above; conditions: Klebsiella pneumoniae strain 164, b-gal +; 24 h on Nutrient Agar, 150 mg/l indicator, 100 mg/l IPTG; for C: Color of colonies: key: −: absent; +/−: weak; +: strong; ++: very strong; for G: Growth of colonies: key: −: absent; +/−: weak; +: strong; ++: very strong
Serratia marcescens 40 = experiment: as above; conditions: Serratia marcescens strain 40, b-gal +; 24 h on Nutrient Agar, 150 mg/l indicator, 100 mg/l IPTG; for G: Growth of colonies: key: −: absent; +/−: weak; +: strong; ++: very strong
[4] = tested on: Staphylococcus intermedius 31; experiment: as above; conditions: Staphylococcus intermedius strain 31, b-gal +; 24 h on Nutrient Agar, 150 mg/l indicator, 100 mg/l IPTG
[5] = tested on: Staphylococcus saprophyticus 273; experiment: as above; conditions: Staphylococcus saprophyticus strain 273, b-gal +; 24 h on Nutrient Agar, 150 mg/l indicator, 100 mg/l IPTG; for G: Growth of colonies: key: −: absent; +/−: weak; +: strong; ++: very strong
Salmonella bongori 81 = experiment: as above; conditions: Salmonella bongori strain 81, b-gal +; 24 h on Nutrient Agar, 150 mg/l indicator, 100 mg/l IPTG; for C: Color of colonies: key: −: absent; +/−: weak/variable; +: strong; for G: Growth of colonies: key: −: absent; +/−: weak; +: strong; ++: very strong
Salmonella illa 73 = experiment: as above; conditions: Salmonella illa strain 73, b-gal +; 24 h on Nutrient Agar, 150 mg/l indicator, 100 mg/l IPTG; note: key: −: absent; +/−: weak; +: strong; ++: very strong
[6] = tested on: Shigella dysenteriae Serovar 1 131; experiment: as above; conditions: Shigella dysenteriae Serovar 1 strain 131, b-gal +/−; 24 h on Nutrient Agar, 150 mg/l indicator, 100 mg/l IPTG
Shigella sonnei 133 = experiment: as above; conditions: Shigella sonnei strain 133, b-gal +/−; 24 h on Nutrient Agar, 150 mg/l indicator, 100 mg/l IPTG; for C: Color of colonies: key: −: absent; +/−: weak; +: strong; ++: very strong; for G: Growth of colonies: key: −: absent; +/−: weak; +: strong; ++: very strong
[7] = tested on: Yersinia enterocolitica 175; experiment: as above; conditions: Yersinia enterocolitica strain 175, b-gal +/−; 24 h on Nutrient Agar, 150 mg/l indicator, 100 mg/l IPTG; for G: Growth of colonies: key: −: absent; +/−: weak; +: strong; ++: very strong
[8] = tested on: Salmonella enteritidis 43; experiment: as above; conditions: Salmonella enteritidis strain 43, b-gal −; 24 h on Nutrient Agar, 150 mg/l indicator, 100 mg/l IPTG; note: key: −: absent; +/−: weak; +: strong; ++: very strong
Bacillus subtilis 65 = experiment: as above; conditions: Bacillus subtilis strain 65, b-gal −; 24 h on Nutrient Agar, 150 mg/l indicator, 100 mg/l IPTG; for C: Color of colonies: key: −: absent; +/−: weak; +: strong; ++: very strong; for F: Fluorescence of colonies: key: −: absent; +/−: weak; +: strong; ++: very strong
[9] = tested on: Listeria monocytogenes (4b) 290; experiment: as above; conditions: Listeria monocytogenes (4b) strain 290, b-gal −; 24 h on Nutrient Agar, 150 mg/l indicator, 100 mg/l IPTG; for C: Color of colonies: key: −: absent; +/−: weak; +: strong; ++: very strong; for F: Fluorescence of colonies: key: −: absent; +/−: weak; +: strong; ++: very strong
[10] = tested on: Pseudomonas aeruginosa 168; experiment: as above; conditions: Pseudomonas aeruginosa strain 168, b-gal −, 24 h on Nutrient Agar, 150 mg/l indicator, 100 mg/l IPTG; for C: Color of colonies: key: −: absent; +/−: weak; +: strong; ++: very strong; for G: Growth of colonies: key: −: absent; +/−: weak; +: strong; ++: very strong
Shigella boydii 135 = experiment: as above; conditions: Shigella boydii strain 135, b-gal −; 24 h on Nutrient Agar, 150 mg/l indicator, 100 mg/l IPTG; note: key: −: absent; +/−: weak; +: strong; ++: very strong
Staphylococcus aureus 2 = experiment: as above; conditions: Staphylococcus aureus strain 2, b-gal −, 24 h on Nutrient Agar, 150 mg/l indicator, 100 mg/l IPTG; for F: Fluorescence of colonies: key: −: absent; +/−: weak; +: strong; ++: very strong
[11] = tested on: Streptococcus agalactiae 195; experiment: as above; conditions: Streptococcus agalactiae strain 195, b-gal −; 24 h on Nutrient Agar, 150 mg/l indicator, 100 mg/l IPTG; for C: Color of colonies: key: −: absent; +/−: weak; +: strong; ++: very strong; for F: Fluorescence of colonies: key: −: absent; +/−: weak; +: strong; ++: very strong

For `COc1ccc(C(=O)c2ccccc2-n2cc(O[C@@H]3O[C@H](CO)[C@H](O)[C@H](O)[C@H]3O)c3ccc(Cl)cc32)c(OC)c1` [Indicator I27a, 6-Chloro-1-[2-(2,4-dimethoxybenzoyl)phenyl]-1H-indol-3-yl-beta-D-galactopyranoside], the “C: Color of colonies” value (Escherichia coli) was “y-o”, the “D: Diffusion around colonies” value (Escherichia coli) was “+/−” and the “G: Growth of colonies” value (Escherichia coli) was “+”. The “I: Intensity of color” value (Escherichia coli) was “+”, the “L: Localization on colonies” value (Escherichia coli) was “+” and the “S: Size of colonies” value (Escherichia coli) was 1 mm. The “C: Color of colonies” value (Aeromonas hydrophila 292) was “+”, the “F: Fluorescence of colonies” value (Aeromonas hydrophila 292) was “+” and the “G: Growth of colonies” value (Aeromonas hydrophila 292) was “+”. The “C: Color of colonies” value (Citrobacter freundii 181) was “+”, the “F: Fluorescence of colonies” value (Citrobacter freundii 181) was “+” and the “G: Growth of colonies” value (Citrobacter freundii 181) was “+”. The “C: Color of colonies” value [1] was “+”, the “F: Fluorescence of colonies” value [1] was “+” and the “G: Growth of colonies” value [1] was “+”. For the same compound, the “C: Color of colonies” value (Enterobacter cloacae 245) was “++”, the “F: Fluorescence of colonies” value (Enterobacter cloacae 245) was “++” and the “G: Growth of colonies” value (Enterobacter cloacae 245) was “+”. For the same compound, the “C: Color of colonies” value [2] was “++”, the “F: Fluorescence of colonies” value [2] was “++” and the “G: Growth of colonies” value [2] was “+”. For the same compound, the “C: Color of colonies” value (Escherichia coli 61) was “++”, the “F: Fluorescence of colonies” value (Escherichia coli 61) was “++” and the “G: Growth of colonies” value (Escherichia coli 61) was “+”. For the same compound, the “C: Color of colonies” value (Escherichia coli 270) was “++”, the “F: Fluorescence of colonies” value (Escherichia coli 270) was “++” and the “G: Growth of colonies” value (Escherichia coli 270) was “+”. For the same compound, the “C: Color of colonies” value [3] was “+”, the “F: Fluorescence of colonies” value [3] was “+” and the “G: Growth of colonies” value [3] was “+”. For the same compound, the “C: Color of colonies” value (Serratia marcescens 40) was “+”, the “F: Fluorescence of colonies” value (Serratia marcescens 40) was “+” and the “G: Growth of colonies” value (Serratia marcescens 40) was “+”. For the same compound, the “C: Color of colonies” value [4] was “−”, the “F: Fluorescence of colonies” value [4] was “−” and the “G: Growth of colonies” value [4] was “+/−”. For the same compound, the “C: Color of colonies” value [5] was “+/−”, the “F: Fluorescence of colonies” value [5] was “+/−” and the “G: Growth of colonies” value [5] was “+”. The “C: Color of colonies” value (Salmonella bongori 81) was “+/−”, the “F: Fluorescence of colonies” value (Salmonella bongori 81) was “+/−” and the “G: Growth of colonies” value (Salmonella bongori 81) was “+”. For the same compound, the “C: Color of colonies” value (Salmonella illa 73) was “−”, the “F: Fluorescence of colonies” value (Salmonella illa 73) was “−” and the “G: Growth of colonies” value (Salmonella illa 73) was “+”. The “C: Color of colonies” value [6] was “−”, the “F: Fluorescence of colonies” value [6] was “−” and the “G: Growth of colonies” value [6] was “+”. For the same compound, the “C: Color of colonies” value (Shigella sonnei 133) was “+”, the “F: Fluorescence of colonies” value (Shigella sonnei 133) was “++” and the “G: Growth of colonies” value (Shigella sonnei 133) was “+”. The “C: Color of colonies” value [7] was “+/−”, the “F: Fluorescence of colonies” value [7] was “−” and the “G: Growth of colonies” value [7] was “+”. For the same compound, the “C: Color of colonies” value [8] was “−”, the “F: Fluorescence of colonies” value [8] was “−” and the “G: Growth of colonies” value [8] was “+”. For the same compound, the “C: Color of colonies” value (Bacillus subtilis 65) was “−”, the “F: Fluorescence of colonies” value (Bacillus subtilis 65) was “−” and the “G: Growth of colonies” value (Bacillus subtilis 65) was “+”. The “C: Color of colonies” value [9] was “−”, the “F: Fluorescence of colonies” value [9] was “−” and the “G: Growth of colonies” value [9] was “+/−”. For the same compound, the “C: Color of colonies” value [10] was “−”, the “G: Growth of colonies” value [10] was “+” and the “F: Fluorescence of colonies” value ([10]; footnote 1: blue autofluorescence) was “+^1”. The “C: Color of colonies” value (Shigella boydii 135) was “−”, the “F: Fluorescence of colonies” value (Shigella boydii 135) was “−” and the “G: Growth of colonies” value (Shigella boydii 135) was “+”. The “F: Fluorescence of colonies” value (Staphylococcus aureus 2) was “−”, the “G: Growth of colonies” value (Staphylococcus aureus 2) was “+/−” and the “C: Color of colonies” value (Staphylococcus aureus 2; footnote 2: S. aureus natural color) was “−”. For the same compound, the “C: Color of colonies” value [11] was “−”, the “F: Fluorescence of colonies” value [11] was “−” and the “G: Growth of colonies” value [11] was “+/−”.
